± gives the expanded uncertainty stated by the source.
Test: xn = mol fraction of the nth substance listed
Details: 100 kPa, Liquid; for speed of sound: Frequency=3 MHz, Sing-around technique in a fixed-path interferometer; for mass density: Vibrating tube method

CCCCOCC(C)O (stereo not given) [1-butoxy-2-propanol] + CC(C)O
Details | mass density, 293.15 K [kg/m3] | mass density, 298.15 K [kg/m3] | mass density, 303.15 K [kg/m3] | mass density, 308.15 K [kg/m3] | mass density, 313.15 K [kg/m3] | speed of sound, 293.15 K [m/s] | speed of sound, 298.15 K [m/s] | speed of sound, 303.15 K [m/s] | speed of sound, 308.15 K [m/s] | speed of sound, 313.15 K [m/s]
x1 = 0.0518 | 795.249 ± 0.15 | 791.104 ± 0.15 | 787.006 ± 0.15 | 782.711 ± 0.15 | 778.081 ± 0.16 | 1178.7 ± 1.2 | 1159 ± 1.2 | 1141.8 ± 1.2 | 1124.3 ± 1.2 | 1103.5 ± 1.2
x1 = 0.1029 | 803.695 ± 0.15 | 799.527 ± 0.15 | 795.386 ± 0.15 | 791.07 ± 0.15 | 786.435 ± 0.15 | 1188.9 ± 1.2 | 1168.9 ± 1.2 | 1150.7 ± 1.2 | 1133.2 ± 1.2 | 1111.5 ± 1.2
x1 = 0.1532 | 811.327 ± 0.15 | 807.143 ± 0.15 | 802.969 ± 0.15 | 798.631 ± 0.15 | 793.996 ± 0.15 | 1197.5 ± 1.2 | 1178.3 ± 1.2 | 1159.2 ± 1.2 | 1141.6 ± 1.2 | 1121.5 ± 1.2
x1 = 0.2019 | 818.045 ± 0.15 | 813.834 ± 0.15 | 809.64 ± 0.15 | 805.279 ± 0.15 | 800.656 ± 0.15 | 1205.8 ± 1.2 | 1186.1 ± 1.2 | 1166.8 ± 1.2 | 1149.2 ± 1.2 | 1129.9 ± 1.2
x1 = 0.2529 | 824.525 ± 0.14 | 820.286 ± 0.15 | 816.061 ± 0.15 | 811.703 ± 0.15 | 807.104 ± 0.15 | 1213.9 ± 1.2 | 1194.4 ± 1.2 | 1174.2 ± 1.2 | 1156.5 ± 1.2 | 1138.4 ± 1.2
x1 = 0.3032 | 830.352 ± 0.14 | 826.103 ± 0.14 | 821.857 ± 0.14 | 817.482 ± 0.15 | 812.872 ± 0.15 | 1221.8 ± 1.2 | 1201.3 ± 1.2 | 1181 ± 1.2 | 1163.2 ± 1.2 | 1146.6 ± 1.2
x1 = 0.4059 | 840.824 ± 0.14 | 836.541 ± 0.14 | 832.254 ± 0.14 | 827.85 ± 0.14 | 823.26 ± 0.15 | 1234.6 ± 1.2 | 1214 ± 1.2 | 1193.5 ± 1.2 | 1175.7 ± 1.2 | 1159.4 ± 1.2
x1 = 0.5048 | 849.502 ± 0.14 | 845.196 ± 0.14 | 840.881 ± 0.14 | 836.456 ± 0.14 | 831.887 ± 0.15 | 1244.9 ± 1.2 | 1225.3 ± 1.2 | 1204.4 ± 1.2 | 1186.7 ± 1.2 | 1170.3 ± 1.2
x1 = 0.604 | 857.039 ± 0.14 | 852.718 ± 0.14 | 848.373 ± 0.14 | 843.934 ± 0.14 | 839.389 ± 0.15 | 1253.3 ± 1.2 | 1234.6 ± 1.2 | 1214.4 ± 1.2 | 1196.6 ± 1.2 | 1179.7 ± 1.2
x1 = 0.7012 | 863.524 ± 0.14 | 859.19 ± 0.14 | 854.833 ± 0.14 | 850.391 ± 0.15 | 845.859 ± 0.15 | 1261.2 ± 1.2 | 1243 ± 1.2 | 1222.6 ± 1.2 | 1204.8 ± 1.2 | 1187.9 ± 1.2
x1 = 0.8028 | 869.466 ± 0.14 | 865.108 ± 0.14 | 860.733 ± 0.15 | 856.287 ± 0.15 | 851.775 ± 0.15 | 1267.7 ± 1.2 | 1250.2 ± 1.2 | 1230.5 ± 1.2 | 1212.8 ± 1.2 | 1195.7 ± 1.2
x1 = 0.8545 | 872.203 ± 0.14 | 867.842 ± 0.14 | 863.464 ± 0.15 | 859.022 ± 0.15 | 854.514 ± 0.15 | 1270.6 ± 1.2 | 1254.6 ± 1.2 | 1234 ± 1.2 | 1216.2 ± 1.2 | 1199.3 ± 1.2
x1 = 0.9056 | 874.745 ± 0.14 | 870.379 ± 0.15 | 865.982 ± 0.15 | 861.537 ± 0.15 | 857.049 ± 0.15 | 1273.4 ± 1.3 | 1257.5 ± 1.2 | 1237.5 ± 1.2 | 1219.7 ± 1.2 | 1202.1 ± 1.2
x1 = 0.954 | 876.996 ± 0.15 | 872.629 ± 0.15 | 868.284 ± 0.15 | 863.829 ± 0.15 | 859.355 ± 0.15 | 1275.9 ± 1.3 | 1259.8 ± 1.3 | 1240.6 ± 1.3 | 1222.9 ± 1.2 | 1204.7 ± 1.2
x1 = 1 | 879.031 ± 0.15 | 874.632 ± 0.15 | 870.204 ± 0.15 | 865.737 ± 0.15 | 861.241 ± 0.15 | 1279 ± 1.3 | 1260.9 ± 1.3 | 1242.9 ± 1.3 | 1224.9 ± 1.3 | 1207 ± 1.3

CCCCOCC(C)O (stereo not given) [1-butoxy-2-propanol] + CCC(C)O
Details | mass density, 293.15 K [kg/m3] | mass density, 298.15 K [kg/m3] | mass density, 303.15 K [kg/m3] | mass density, 308.15 K [kg/m3] | mass density, 313.15 K [kg/m3] | speed of sound, 293.15 K [m/s] | speed of sound, 298.15 K [m/s] | speed of sound, 303.15 K [m/s] | speed of sound, 308.15 K [m/s] | speed of sound, 313.15 K [m/s]
x1 = 0.0517 | 812.712 ± 0.16 | 808.614 ± 0.16 | 804.434 ± 0.16 | 800.162 ± 0.17 | 795.809 ± 0.17 | 1234.4 ± 1.3 | 1217.3 ± 1.3 | 1201.4 ± 1.3 | 1181.6 ± 1.2 | 1163.6 ± 1.2
x1 = 0.1014 | 818.284 ± 0.16 | 814.152 ± 0.16 | 809.949 ± 0.16 | 805.653 ± 0.16 | 801.286 ± 0.17 | 1238.8 ± 1.3 | 1221.5 ± 1.3 | 1205.7 ± 1.3 | 1186 ± 1.2 | 1168 ± 1.2
x1 = 0.1527 | 823.685 ± 0.16 | 819.533 ± 0.16 | 815.316 ± 0.16 | 811.017 ± 0.16 | 806.644 ± 0.16 | 1243 ± 1.3 | 1225.9 ± 1.3 | 1209.6 ± 1.3 | 1190 ± 1.2 | 1172 ± 1.2
x1 = 0.2041 | 828.704 ± 0.16 | 824.532 ± 0.16 | 820.316 ± 0.16 | 816 ± 0.16 | 811.61 ± 0.16 | 1246.9 ± 1.3 | 1229.4 ± 1.3 | 1213.3 ± 1.3 | 1194 ± 1.2 | 1176 ± 1.2
x1 = 0.2815 | 835.699 ± 0.16 | 831.499 ± 0.16 | 827.23 ± 0.16 | 822.897 ± 0.16 | 818.493 ± 0.16 | 1252.2 ± 1.3 | 1234 ± 1.3 | 1218.3 ± 1.3 | 1199.1 ± 1.3 | 1181.2 ± 1.2
x1 = 0.3581 | 841.995 ± 0.15 | 837.767 ± 0.16 | 833.49 ± 0.16 | 829.144 ± 0.16 | 824.735 ± 0.16 | 1256.8 ± 1.3 | 1238.2 ± 1.3 | 1222.6 ± 1.3 | 1203.6 ± 1.3 | 1185.7 ± 1.2
x1 = 0.4421 | 848.377 ± 0.15 | 844.12 ± 0.15 | 839.804 ± 0.16 | 835.438 ± 0.16 | 831.018 ± 0.16 | 1261.1 ± 1.3 | 1242.5 ± 1.3 | 1226.7 ± 1.3 | 1207.9 ± 1.3 | 1190 ± 1.2
x1 = 0.5348 | 854.7 ± 0.15 | 850.417 ± 0.15 | 846.095 ± 0.15 | 841.719 ± 0.15 | 837.299 ± 0.16 | 1265.3 ± 1.3 | 1246.8 ± 1.3 | 1230.6 ± 1.3 | 1212 ± 1.3 | 1194.1 ± 1.2
x1 = 0.627 | 860.446 ± 0.15 | 856.141 ± 0.15 | 851.795 ± 0.15 | 847.417 ± 0.15 | 842.98 ± 0.15 | 1268.8 ± 1.3 | 1250.7 ± 1.3 | 1233.8 ± 1.3 | 1215.3 ± 1.3 | 1197.5 ± 1.2
x1 = 0.7213 | 865.799 ± 0.15 | 861.469 ± 0.15 | 857.116 ± 0.15 | 852.712 ± 0.15 | 848.267 ± 0.15 | 1271.6 ± 1.3 | 1254 ± 1.3 | 1236.5 ± 1.3 | 1218.2 ± 1.3 | 1200.3 ± 1.3
x1 = 0.8116 | 870.476 ± 0.15 | 866.131 ± 0.15 | 861.747 ± 0.15 | 857.328 ± 0.15 | 852.892 ± 0.15 | 1274 ± 1.3 | 1256.4 ± 1.3 | 1238.8 ± 1.3 | 1220.6 ± 1.3 | 1202.8 ± 1.3
x1 = 0.8581 | 872.724 ± 0.15 | 868.372 ± 0.15 | 863.985 ± 0.15 | 859.577 ± 0.15 | 855.127 ± 0.15 | 1275.3 ± 1.3 | 1257.5 ± 1.3 | 1239.8 ± 1.3 | 1221.9 ± 1.3 | 1204.1 ± 1.3
x1 = 0.9062 | 874.964 ± 0.15 | 870.61 ± 0.15 | 866.21 ± 0.15 | 861.774 ± 0.15 | 857.32 ± 0.15 | 1276.4 ± 1.3 | 1258.6 ± 1.3 | 1240.8 ± 1.3 | 1222.8 ± 1.3 | 1205 ± 1.3
x1 = 0.9536 | 877.051 ± 0.15 | 872.689 ± 0.15 | 868.316 ± 0.15 | 863.853 ± 0.15 | 859.383 ± 0.15 | 1277.7 ± 1.3 | 1259.7 ± 1.3 | 1242 ± 1.3 | 1223.9 ± 1.3 | 1206.1 ± 1.3
x1 = 1 | 879.031 ± 0.15 | 874.632 ± 0.15 | 870.204 ± 0.15 | 865.737 ± 0.15 | 861.241 ± 0.15 | 1279 ± 1.3 | 1260.9 ± 1.3 | 1242.9 ± 1.3 | 1224.9 ± 1.3 | 1207 ± 1.3

Reference: the NIST ThermoML archive (doi:10.1016/j.jct.2014.07.019)
